# Reference: US7413837B2, “Charge control agent and toner for electrostatic image development containing the same” (Orient Chemical Industries, Ltd., priority 2002, dated 2008)
# Assay: confirmatory test of the sublimation
# Assay type: physicochemical
# Conditions: 100 mg compound mixed with 2 g resin of acid value 19 mg KOH/g in crucible, heated at 190 degrees centigrade for 1 hour
# Protocol: Subsequently, the confirmatory test of the sublimation of the monoazo compound was performed. 100 mg of the monoazo compound and 2 g of the resin having 19 mg KOH/g of the acid value were added into a 25 mL crucible, and mixed. A filter paper was put on the crucible. After the bottom of crucible was heated at 190 degrees centigrade for 1 hour, an under side of the filter paper was observed.
# Subsequently, the confirmatory test of the sublimation of the monoazo metals-compound was performed. 100 mg of the metals-compound and 2 g of the resin having 19 mg KOH/g of the acid value are added and mixed into a 25 mL crucible. A filter paper was put on the crucible. After the bottom of the crucible was heated at 190 degrees centigrade for 1 hour, the under side of the filter paper was observed.
structure (smiles),measurement,value
COC(=O)Nc1cccc2ccc(O)c(N=Nc3cc(Cl)ccc3O)c12 [I-1],sublimation property (accretions of sublimates on under side of filter paper),no sublimation property
